Experimental data reported in PubChem BioAssay AID1919008 (Molecular Pharmacology Branch, DTP, NCI, 2023).

Tested on: DMS-114 complex spheroids with HUVEC/MSC, growth % test/control
Test: Anticancer human tumor DMS-114 cell line growth inhibition [AhR];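 further: spheroids exposed to agents for 7 days before readout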;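 on viability, T/C: 100% = DMSO vehicle control wells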
Settings: for IC50: curve of first compound; for viability, T/C: stronger effect = lower value
Outline: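 Spheroids combined tumor cells with HUVEC endothelial cells and human MSCs as stroma. AhR antagonists were paired with standard or investigational drugs, each dosed in half-log steps down from near clinical Cmax, or from 10 microM where Cmax was unknown.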

[1] = second compound 0.1 µM, first compound 0.0316 µM
[2] = second compound 0.1 µM, first compound 0.1 µM
[3] = second compound 0.1 µM, first compound 0.316 µM
[4] = second compound 0.1 µM, first compound 1 µM
[5] = second compound 0.1 µM, first compound 3.16 µM
[6] = second compound 0.1 µM, first compound 10 µM
[7] = second compound 0.316 µM, first compound 0.0316 µM
[8] = second compound 0.316 µM, first compound 0.1 µM
[9] = second compound 0.316 µM, first compound 0.316 µM
[10] = second compound 0.316 µM, first compound 1 µM
[11] = second compound 0.316 µM, first compound 3.16 µM
[12] = second compound 0.316 µM, first compound 10 µM
[13] = second compound 1 µM, first compound 0.0316 µM
[14] = second compound 1 µM, first compound 0.1 µM
[15] = second compound 1 µM, first compound 0.316 µM
[16] = second compound 1 µM, first compound 1 µM
[17] = second compound 1 µM, first compound 3.16 µM
[18] = second compound 1 µM, first compound 10 µM
[19] = second compound 3.16 µM, first compound 0.0316 µM
[20] = second compound 3.16 µM, first compound 0.1 µM
[21] = second compound 3.16 µM, first compound 0.316 µM
[22] = second compound 3.16 µM, first compound 1 µM
[23] = second compound 3.16 µM, first compound 3.16 µM
[24] = second compound 3.16 µM, first compound 10 µM
[25] = second compound 10 µM, first compound 0.0316 µM
[26] = second compound 10 µM, first compound 0.1 µM
[27] = second compound 10 µM, first compound 0.316 µM
[28] = second compound 10 µM, first compound 1 µM
[29] = second compound 10 µM, first compound 3.16 µM
[30] = second compound 10 µM, first compound 10 µM

`CC1(C)CCC(CN2CCN(c3ccc(C(=O)NS(=O)(=O)c4ccc(NCC5CCOCC5)c([N+](=O)[O-])c4)c(Oc4cnc5[nH]ccc5c4)c3)CC2)=C(c2ccc(Cl)cc2)C1` + Cc1cncc(-c2nc(NCCc3c[nH]c4ccccc34)c3ncn(C(C)C)c3n2)c1 showed an IC50 (second compound 0.1 µM) greater than 10000 nM, an IC50 (second compound 0.316 µM) greater than 10000 nM and an IC50 (second compound 1 µM) greater than 10000 nM. For the same compound, the IC50 (second compound 3.16 µM) was greater than 10000 nM, the IC50 (second compound 10 µM) was 6390 nM and the viability, T/C [1] was 91.9%. The viability, T/C [2] was 92.7%, the viability, T/C [3] was 101% and the viability, T/C [4] was 106%. For the same compound, the viability, T/C [5] was 94.9%, the viability, T/C [6] was 110% and the viability, T/C [7] was 91.5%. The viability, T/C [8] was 95.7%, the viability, T/C [9] was 95.5% and the viability, T/C [10] was 107%. For the same compound, the viability, T/C [11] was 102%, the viability, T/C [12] was 98.9% and the viability, T/C [13] was 102%. The viability, T/C [14] was 102%, the viability, T/C [15] was 108% and the viability, T/C [16] was 97.6%. It also gave a viability, T/C [17] of 110%, a viability, T/C [18] of 101% and a viability, T/C [19] of 96.8%. For the same compound, the viability, T/C [20] was 86.8%, the viability, T/C [21] was 93.8% and the viability, T/C [22] was 103%. For the same compound, the viability, T/C [23] was 96.3%, the viability, T/C [24] was 84.7% and the viability, T/C [25] was 50.9%. For the same compound, the viability, T/C [26] was 60.2%, the viability, T/C [27] was 58.3% and the viability, T/C [28] was 47.8%. For the same compound, the viability, T/C [29] was 45% and the viability, T/C [30] was 53.7%.
Compound `CCN(c1cc(-c2ccc(CN3CCOCC3)cc2)cc(C(=O)NCc2c(C)cc(C)[nH]c2=O)c1C)C1CCOCC1` + Cc1cncc(-c2nc(NCCc3c[nH]c4ccccc34)c3ncn(C(C)C)c3n2)c1 has an IC50 (second compound 0.1 µM) greater than 3000 nM, an IC50 (second compound 0.316 µM) greater than 3000 nM and an IC50 (second compound 1 µM) greater than 3000 nM. For the same compound, the IC50 (second compound 3.16 µM) was greater than 3000 nM, the IC50 (second compound 10 µM) was 361 nM and the viability, T/C (second compound 0.1 µM, first compound 0.00949 µM) was 92.9%. The viability, T/C (second compound 0.1 µM, first compound 0.03 µM) was 97.4%, the viability, T/C (second compound 0.1 µM, first compound 0.0949 µM) was 92.9% and the viability, T/C (second compound 0.1 µM, first compound 0.3 µM) was 92.6%. The viability, T/C (second compound 0.1 µM, first compound 0.949 µM) was 82.7%, the viability, T/C (second compound 0.1 µM, first compound 3 µM) was 70.8% and the viability, T/C (second compound 0.316 µM, first compound 0.00949 µM) was 94.9%. The viability, T/C (second compound 0.316 µM, first compound 0.03 µM) was 89.3%, the viability, T/C (second compound 0.316 µM, first compound 0.0949 µM) was 109% and the viability, T/C (second compound 0.316 µM, first compound 0.3 µM) was 90.5%. It also gave a viability, T/C (second compound 0.316 µM, first compound 0.949 µM) of 78.9%, a viability, T/C (second compound 0.316 µM, first compound 3 µM) of 59% and a viability, T/C (second compound 1 µM, first compound 0.00949 µM) of 99.1%. It also gave a viability, T/C (second compound 1 µM, first compound 0.03 µM) of 101%, a viability, T/C (second compound 1 µM, first compound 0.0949 µM) of 95.9% and a viability, T/C (second compound 1 µM, first compound 0.3 µM) of 91.2%. The viability, T/C (second compound 1 µM, first compound 0.949 µM) was 76.6%, the viability, T/C (second compound 1 µM, first compound 3 µM) was 68.8% and the viability, T/C (second compound 3.16 µM, first compound 0.00949 µM) was 99.3%. For the same compound, the viability, T/C (second compound 3.16 µM, first compound 0.03 µM) was 97.8%, the viability, T/C (second compound 3.16 µM, first compound 0.0949 µM) was 90% and the viability, T/C (second compound 3.16 µM, first compound 0.3 µM) was 92%. The viability, T/C (second compound 3.16 µM, first compound 0.949 µM) was 74.8%, the viability, T/C (second compound 3.16 µM, first compound 3 µM) was 63.5% and the viability, T/C (second compound 10 µM, first compound 0.00949 µM) was 58.2%. The viability, T/C (second compound 10 µM, first compound 0.03 µM) was 55.2%, the viability, T/C (second compound 10 µM, first compound 0.0949 µM) was 54.3% and the viability, T/C (second compound 10 µM, first compound 0.3 µM) was 50.9%. For the same compound, the viability, T/C (second compound 10 µM, first compound 0.949 µM) was 45.7% and the viability, T/C (second compound 10 µM, first compound 3 µM) was 46.4%.
Compound `Cn1ncnc1C1c2n[nH]c(=O)c3cc(F)cc(c23)NC1c1ccc(F)cc1` (stereo not given) + Cc1cncc(-c2nc(NCCc3c[nH]c4ccccc34)c3ncn(C(C)C)c3n2)c1 has an IC50 (second compound 0.1 µM) greater than 100 nM, an IC50 (second compound 0.316 µM) greater than 100 nM and an IC50 (second compound 1 µM) greater than 100 nM. It also gave an IC50 (second compound 3.16 µM) greater than 100 nM, an IC50 (second compound 10 µM) of less than 0.316 nM and a viability, T/C (second compound 0.1 µM, first compound 0.000316 µM) of 103%. For the same compound, the viability, T/C (second compound 0.1 µM, first compound 0.001 µM) was 93.9%, the viability, T/C (second compound 0.1 µM, first compound 0.00316 µM) was 100% and the viability, T/C (second compound 0.1 µM, first compound 0.01 µM) was 105%. For the same compound, the viability, T/C [1] was 98.2%, the viability, T/C [2] was 75.5% and the viability, T/C (second compound 0.316 µM, first compound 0.000316 µM) was 87.5%. The viability, T/C (second compound 0.316 µM, first compound 0.001 µM) was 89.6%, the viability, T/C (second compound 0.316 µM, first compound 0.00316 µM) was 88.1% and the viability, T/C (second compound 0.316 µM, first compound 0.01 µM) was 87.1%. It also gave a viability, T/C [7] of 84.7%, a viability, T/C [8] of 80.2% and a viability, T/C (second compound 1 µM, first compound 0.000316 µM) of 94.1%. It also gave a viability, T/C (second compound 1 µM, first compound 0.001 µM) of 99%, a viability, T/C (second compound 1 µM, first compound 0.00316 µM) of 96.8% and a viability, T/C (second compound 1 µM, first compound 0.01 µM) of 93.6%. It also gave a viability, T/C [13] of 93.3%, a viability, T/C [14] of 81.3% and a viability, T/C (second compound 3.16 µM, first compound 0.000316 µM) of 85.4%. It also gave a viability, T/C (second compound 3.16 µM, first compound 0.001 µM) of 95.4%, a viability, T/C (second compound 3.16 µM, first compound 0.00316 µM) of 89.3% and a viability, T/C (second compound 3.16 µM, first compound 0.01 µM) of 77.3%. It also gave a viability, T/C [19] of 79.2%, a viability, T/C [20] of 74.9% and a viability, T/C (second compound 10 µM, first compound 0.000316 µM) of 47.6%. It also gave a viability, T/C (second compound 10 µM, first compound 0.001 µM) of 50.7%, a viability, T/C (second compound 10 µM, first compound 0.00316 µM) of 42.7% and a viability, T/C (second compound 10 µM, first compound 0.01 µM) of 41.6%. The viability, T/C [25] was 37.6% and the viability, T/C [26] was 45.2%.
`NS(=O)(=O)OCC1CC(n2ccc3c(NC4CCc5ccccc54)ncnc32)CC1O` (stereo not given) + Cc1cncc(-c2nc(NCCc3c[nH]c4ccccc34)c3ncn(C(C)C)c3n2)c1 was tested, and the IC50 (second compound 0.1 µM) was 50.3 nM, the IC50 (second compound 0.316 µM) was 45.8 nM and the IC50 (second compound 1 µM) was 42 nM. For the same compound, the IC50 (second compound 3.16 µM) was 40.5 nM, the IC50 (second compound 10 µM) was less than 31.6 nM and the viability, T/C [1] was 59.4%. For the same compound, the viability, T/C [2] was 36%, the viability, T/C [3] was 17.1% and the viability, T/C [4] was 7.31%. For the same compound, the viability, T/C [5] was 5.19%, the viability, T/C [6] was 4.45% and the viability, T/C [7] was 56.9%. For the same compound, the viability, T/C [8] was 35.4%, the viability, T/C [9] was 16.1% and the viability, T/C [10] was 6.55%. For the same compound, the viability, T/C [11] was 5.26%, the viability, T/C [12] was 3.74% and the viability, T/C [13] was 55%. The viability, T/C [14] was 34.7%, the viability, T/C [15] was 17.6% and the viability, T/C [16] was 6.95%. For the same compound, the viability, T/C [17] was 4.06%, the viability, T/C [18] was 4.6% and the viability, T/C [19] was 54.9%. The viability, T/C [20] was 32.2%, the viability, T/C [21] was 15.8% and the viability, T/C [22] was 4.55%. It also gave a viability, T/C [23] of 4.39%, a viability, T/C [24] of 2.86% and a viability, T/C [25] of 42.2%. It also gave a viability, T/C [26] of 24.6%, a viability, T/C [27] of 12.2% and a viability, T/C [28] of 3.49%. It also gave a viability, T/C [29] of 2.11% and a viability, T/C [30] of 1.61%.
